According to patent publication US20240124483A1, “Methods for the Treatment of Fibrotic Disease” (SHY Therapeutics, LLC, priority 2021, published 2024):
Like-named read-outs stand apart in the source and are kept apart here.

Assays:
[1] = Assessment of Plasma Exposure in DBA/2J mice; type: in vivo, mouse; conditions: for half-life / AUC(0-t) / Cmax / AUC(0-inf) / Tmax: male, DBA/2J, mouse plasma; for half-life / AUC(0-t) / Cmax / AUC(0-inf): mouse, plasma, po; for AUC(0-inf): read-out: AUCINFobs
[2] = Assessment of Plasma Exposure in DBA/2J mice; type: in vivo, mouse
Description: Experimental Design: Compound 9 was suspended in 0.5% Hydroxypropyl Methylcellulose (HPMC)/0.1% Tween® 80 to a final concentration of 10 mg/mL. The dosing solutions were prepared prior to the start of the test. Male DBA/2J mice (Jackson Stock No: 000671) were housed in solid bottom cages with standard chow and water ad libitum. Dosing was initiated when animals were 7-8 weeks old. Mice were dosed at a volume of 10 mL/kg by intraperitoneal (IP) injection at 100 mg/kg or vehicle. […] Blood was collected at 15 min, 30 min, 1 h, 2 h, 4 h, 7 h, 16 h, 24 h by cardiac puncture, mixed gently 8 times and put on ice until centrifuged within 30 minutes of collection. The plasma was transferred to a 96-well plate for analysis of test compound levels.
Preparation of Standard Solutions for Calibration of UPLC: Assay: 2 mg/mL in DMSO Stock solutions of reference standard of Compound 9 was freshly prepared. 15 uL of the 2 mg/mL DMSO stock solution of Compound 9 was spiked into a vial and diluted to a final volume of 1 mL (30 ug/mL). 100 uL of the 30 ug/mL solution was mixed with 900 uL methanol (final conc. 3 ug/mL). A calibration curve was obtained from solutions having concentrations of 0.001, 0.003, 0.01, 0.03, 0.1, 0.5 and 1 ug/mL, which were prepared further dilution of the 3 ug/mL solution with methanol. An internal standard of D3-desacetylDFZ (500 ng/mL in methanol) was used. • UPLC Conditions: • Column: Waters UPLC Acquity BEH C18 Column 2.1*50, 1.7 uM • Mobile phase: A: 0.1% formic acid in water; B: 0.1% formic acid in 100% acetonitrile • Gradient:
• Temperature: 50° C. • Run time: 2 min • Injection volume=2 uL • Instrument: Waters TQ-s • Desolvation Temperature: 500° C. • Desolvation gas flow: 1000 L/hr • Capillary Cone voltage: 0.5 • Reference batch: 21-hydroxy emflaza, Compound 9
Preparation of Samples for UPLC: Protein Precipitation Method Using Millipore Hydrophilic Plate (MSRLN04) to Filter the Precipitated Protein • 1) Plasma calibration curve for positively charged compound: all in the filter plate added • a) IS-410000 in acetonitrile (0.1 ug/mL) 200 uL • b) Calibration curve in methanol: 20 uL • c) Methanol: 20 uL • d) Control mouse plasma: 20 uL • 2) Test plasma • a) IS-410000 in acetonitrile (0.1 ug/mL) 200 uL • b) Calibration curve in methanol: 20 uL • c) Test plasma: 20 uL
Placed sample on automatic shaker for at least 5 min
Centrifuged at 2000 rpm (Eppendorf 5804) for 2 min. 2-2.5 uL supernatant were injected onto LCMS system

[3] = tested on: serum albumin in muscle tissues; assay: Albumin analysis of muscle tissue in the D2-mdx mouse model (western blot, densitometry); type: in vivo
Description: The experiment described herein was designed to monitor the effects of Compound 9 on two biomarkers related to fibrosis in D2-mdx mice. The first biomarker is Smad2 phosphorylation, and the second is the levels of serum albumin in the different muscle tissues. Fibrosis causes disruption of the fine transparent tubular sheath which envelops the fibers of skeletal muscles, this can result in various molecules from the blood and interstitial fluid leaking into myofibres. A classic example is serum albumin, which can be identified in tissue sections and considered to be hallmark of myofibre permeability.
(§1) Experimental Design: Compound 9 was suspended in 0.5% Hydroxypropyl Methylcellulose (HPMC)/0.1% Tween® 80 to a final concentration of 10 mg/mL. The dosing solutions were prepared prior to the start of the test and were stored in the dark and maintained in frozen aliquots. Doses were thawed prior to administration. Male D2-mdx (JAX Stock No: 013141) mice were sourced from The Jackson Laboratory and housed in solid bottom cages with standard chow and water ad libitum. Dosing was initiated when animals were ˜3 weeks old. Animals were dosed daily by intraperitoneal (IP) injection at 100 mg/kg or vehicle for 3 days. […] Mice were sacrificed by CO2 euthanasia approximately 6 hours after their day 3 dosing. Heart, diaphragm, quadriceps, tibialis anterior (TA) samples were collected at termination on day 3 and snap frozen. These samples were shipped on dry ice for analysis, and were stored at −80° C.
Tissue protein extraction: Frozen tissues were placed on ice in prechilled tubes with 30 μL/mg with of ice-cold RIPA buffer+Halt™ Protease & Phosphatase Inhibitor Cocktail. Tissue was homogenized with a manual tissue homogenizer then centrifuged at 14,000 RPM at 4° C. for 15 min. Supernatant was removed and protein concentration determined by BCA assay.
Western blot protocol: Equal amounts of protein (15-50 μg) were separated by SDS-PAGE and transferred to nitrocellulose membranes (Invitrogen by Thermo Fisher Scientific). The membrane was stained with Ponceau S Stain (Boston BioProducts) to verify uniform protein loading. Membranes were blocked with 10% milk and albumin levels were assessed by incubating overnight at 4° C. with albumin antibody (Cell Signaling Technology #4929). Then the membranes were incubated with HRP-conjugated secondary antibody (Jackson Immunoresearch, West Grove, PA). Bands were incubated in Amersham ECL Prime Western Blotting Detection Reagent (GE Healthcare) and visualized using the ChemiDoc MP imaging system (Bio-Rad).
Western blot images for samples collected from heart (FIG. 2), diaphragm (FIG. 3), quadriceps (FIG. 4), and tibialis anterior (TA, FIG. 5) tissues following termination on day 3 were analyzed, providing the results summarized herein below (derived by densitometry).

[4] = Observation for mortality and signs of pain or distress, D2-mdx mice; type: in vivo; conditions: male D2-mdx mice, 100 mg/kg IP daily for 3 days
Description: as §1

[5] = 25 mg/kg, Group 2: 25 mg/kg PO, Vehicle 1
[6] = 100 mg/kg, Group 3: 100 mg/kg PO, Vehicle 1
[7] = 100 mg/kg, Group 4: 100 mg/kg PO, Vehicle 2
[8] = male, DBA/2J, mouse, plasma, ip, 100 mg/kg, Group 5: 100 mg/kg IP, Vehicle 1, mouse plasma
[9] = D2-mdx mice, 100 mg/kg IP, 3 days
[10] = Ratio of Vehicle and Treated, 100 mg/kg IP, 3 days
[11] = Treated, 100 mg/kg IP daily for 3 days, D2-mdx mice, densitometry

## COCCNc1nc(-c2nccn2C)nc2sc(-c3cccc(OC)c3Cl)c(-c3ccccc3)c12 [Compound 9, 6-(2-Chloro-3-methoxyphenyl)-N-(2-methoxyethyl)-2-(1-methyl-1H-imidazol-2-yl)-5-phenylthieno[2,3-d]pyrimidin-4-amine]
[1]; Groups 2 and 3: 25 and 100 mg/kg PO, Vehicle 1
  Exposures (AUC), dose dependence: dose proportional
[1]; 25 mg/kg, Group 2: 25 mg/kg PO, Vehicle 1 (0.5% HPMC with 0.1% Tween 80)
  half-life: 174 min
[1]; [5]
  AUC(0-t): 3880 ng·h/mL
  Cmax: 703 ng/mL
  AUC(0-inf): 3900 ng·h/mL
[1]; [6]
  AUC(0-t): 16700 ng·h/mL
  Cmax: 1960 ng/mL
  half-life: 127 min
  AUC(0-inf): 16700 ng·h/mL
[1]; 100 mg/kg, Group 4: 100 mg/kg PO, Vehicle 2 (Solubilized Lipid)
  half-life: 138 min
[1]; [7]
  AUC(0-t): 17100 ng·h/mL
  Cmax: 2090 ng/mL
  AUC(0-inf): 17200 ng·h/mL
[1]; Group 2: 25 mg/kg PO, Vehicle 1
  Tmax: 4 h
[1]; Group 3: 100 mg/kg PO, Vehicle 1
  Tmax: 4 h
[1]; oral dosing (PO), 100 mg/kg
  Exposures (AUC), Vehicle 1 compared to Vehicle 2: similar
[2]; Group 5 compared to Group 3, 100 mg/kg
  Exposures, intraperitoneal (IP) injection compared to oral dosing: higher
[2]; [8]
  AUC(0-t): 43000 ng·h/mL
  Cmax: 26000 ng/mL
  half-life: 178 min
[2]; male, DBA/2J, mouse, plasma, ip, 100 mg/kg, Group 5: 100 mg/kg IP, Vehicle 1, mouse plasma, read-out: AUCINFobs
  AUC(0-inf): 43200 ng·h/mL
[2]; male, DBA/2J, Group 5: 100 mg/kg IP, Vehicle 1, mouse plasma
  Tmax: 15 min
[3]; [9]
  serum albumin levels in the heart: No changes were detected
  serum albumin levels in the tibialis anterior and quadricep muscles: clear decrease
[3]; [10]
  Albumin, Quadriceps, Average, Ratio: 1.25
  Albumin, Quadriceps, Median, Ratio: 1.21
  Albumin, Tibialis anterior, Average, Ratio: 1.18
  Albumin, Tibialis anterior, Median, Ratio: 1.26
[3]; [11]
  Albumin, Quadriceps, Average: 32650 ± 4998
  Albumin, Quadriceps, Median: 34329
  Albumin, Tibialis anterior, Average: 34522 ± 4321
  Albumin, Tibialis anterior, Median: 33494
[4]
  findings of overt toxicity: No findings of overt toxicity were observed
